Laboratory results published in patent publication US11384126B2, “Compositions and methods for inhibiting DHHC-type palmitoyltransferases for cancer treatment” (DANA-FARBER CANCER INSTITUTE, INC., priority 2017, dated 2022).

What was measured:
[1] = system: DHHC proteins; details: literature: Jennings et al., 2008; cited from earlier work
[2] = system: MDA-MB-231 cells; assay: apoptotic cell death, caspase-3 blot after chemotherapeutic agents; assay type: cell-based, human; details: for cell sensitivity to drug (apoptotic cell death, caspase-3) when zDHHC3 is ablated: MDA-MB-231, 25 hr, D3 shRNA vs control shRNA, Camptothecin 2 μM, Gefitinib 50 μM, 5-Fluorouracil 10 μg/ml
Method: Specifically, human breast carcinoma MDA-MB-231 cells were treated with Camptothecin (2 μM), Gefitinib (50 μM), 5-Fluorouracil (10 μg/ml), or DMSO (vehicle control), for 25 hr, lysed, then blotted for caspase-3, to assess apoptotic cell death. C=control shRNA; D3=stable DHHC3 ablation; D3^R=shRNA knockdown cells reconstituted with wild type DHHC3; D3^M=mutant DHHC3 (inactivated by C→S active site mutation).

[3] = system: ZDHHC3-ablated cells; assay: senescence, C12FDG dye (β-galactosidase), flow cytometry; assay type: cell-based, human; details: summary statement
Method: To assess oxidative stress/reactive oxygen species (ROS), control and ZDHHC3-ablated tumor cells were trypsinized and suspended in complete medium. After PBS wash, cells were loaded with 2 μM CellROX dye in complete medium (37° C., 30 min). Cells were then washed twice with IX PBS, incubated in complete media (37° C., 30 min), washed twice again with 1×PBS, and then analyzed by flow cytometry. Similarly, senescence was measured by loading suspended control and ZDHHC3 ablated cells with C12FDG dye (30 min, 37° C.) in complete medium. The C12FDG dye is converted by intracellular β-galactosidase (elevated in senescent cells) to produce fluorescence, which was quantitated by flow cytometry.

[4] = system: ZDHHC3-ablated MDA-MB-231 cells; assay: oxidative stress/ROS, CellROX dye, flow cytometry; assay type: cell-based, human; details: for effect on oxidative stress/ROS elevated by ZDHHC3 ablation: ZDHHC3-ablated MDA-MB-231 cells, CellROX; for direct and indirect effects of oxidative stress in ZDHHC3-ablated cells: summary statement
Method: To assess oxidative stress/reactive oxygen species (ROS), control and ZDHHC3-ablated tumor cells were trypsinized and suspended in complete medium. After PBS wash, cells were loaded with 2 μM CellROX dye in complete medium (37° C., 30 min). Cells were then washed twice with IX PBS, incubated in complete media (37° C., 30 min), washed twice again with 1×PBS, and then analyzed by flow cytometry. Similarly, senescence was measured by loading suspended control and ZDHHC3 ablated cells with C12FDG dye (30 min, 37° C.) in complete medium. The C12FDG dye is converted by intracellular β-galactosidase (elevated in senescent cells) to produce fluorescence, which was quantitated by flow cytometry. […] Increased oxidative stress can decrease tyrosine phosphatase activities (Tanner et al., 2011 Antioxid Redox Signal, 15:77-97), which can elevate tyrosine phosphorylation of focal adhesion kinase (FAK) and STAT3 proteins (Carballo et al., 1999 J Biol Chem, 274:17580-6; Ben et al., 2000 IUBMB Life, 50:291-9).

[5] = system: focal adhesion kinase (FAK); assay: FAK tyrosine phosphorylation, immunoprecipitation and western blotting; assay type: cell-based, human; details: control and ZDHHC3-ablated MDA-MB-231 cells, FIG. 2C upper panels
Description: Increased oxidative stress can decrease tyrosine phosphatase activities (Tanner et al., 2011 Antioxid Redox Signal, 15:77-97), which can elevate tyrosine phosphorylation of focal adhesion kinase (FAK) and STAT3 proteins (Carballo et al., 1999 J Biol Chem, 274:17580-6; Ben et al., 2000 IUBMB Life, 50:291-9).

[6] = system: MCP-1; assay: MCP-1 secretion (senescence-associated), western blotting; assay type: cell-based, human; details: MDA-MB-231 cells, FIG. 2C bottom panel
Method: Cells were cultured in DMEM and/or RPMI medium (Invitrogen, Grand Island, N.Y.) containing 10% FBS (Sigma, Mo.), HEPES and 1% penicillin-streptomycin (Invitrogen, Grand Island, N.Y.). […] Cultured cells were lysed in 1% Triton X-100, and total protein was quantified using BCA protein estimation kit. Western blotting and relative band intensity densitometry were described previously (Sharma et al., 2012 Cell Mol Life Sci, 69:2233-44).

| SMILES | cell sensitivity to drug (apoptotic cell death, caspase-3) when zDHHC3 is ablated [2] | increased senescence measured by β-galactosidase activity and/or SASP marker MCP-1 [3] | direct and indirect effects of oxidative stress in ZDHHC3-ablated cells [4] | effect on ZDHHC3 ablation-induced FAK tyrosine phosphorylation [5] | MCP-1 upregulation in ZDHHC3-ablated cells [6] | further results |
| --- | --- | --- | --- | --- | --- | --- |
| O=C1C(=Cc2cc([N+](=O)[O-])ccc2O)Sc2ccccc21 [2-(2-hydroxy-5-nitro-benzylidene)-benzo[b]thiophen-3-one] |  |  |  |  |  | palmitoyltransferase activity of all DHHC proteins tested [1]: inhibited |
| CCCCCCCCCCCCCCC(Br)C(=O)O (stereo not drawn) [2-bromopalmitate] |  |  |  |  |  | palmitoyltransferase activity of all DHHC proteins tested [1]: inhibited |
| O=c1[nH]cc(F)c(=O)[nH]1 [5-Fu, 5-Fluorouracil] | enhanced |  |  |  |  |  |
| COc1cc2ncnc(Nc3ccc(F)c(Cl)c3)c2cc1OCCCN1CCOCC1 [Gefitinib] | not enhanced |  |  |  |  |  |
| CC(=O)N[C@@H](CS)C(=O)O [NAC, N-acetyl cysteine] |  | substantially reversed | substantially reversed | substantially prevented | markedly diminished | effect on oxidative stress/ROS elevated by ZDHHC3 ablation [4]: substantially prevented; effect on oxidative stress/ROS elevated by ZDHHC3 ablation ([4]; listed as N-acetyl cysteine): partial reversal |
| CC(C)c1c(C(=O)Nc2ccccc2)c(-c2ccccc2)c(-c2ccc(F)cc2)n1CC[C@@H](O)C[C@@H](O)CC(=O)O [atorvastatin] |  | substantially reversed | substantially reversed | substantially prevented | markedly diminished |  |
| CC[C@@]1(O)C(=O)OCc2c1cc1n(c2=O)Cc2cc3ccccc3nc2-1 [camptothecin] | enhanced |  |  |  |  | cell sensitivity to drug (caspase-3) with inactive DHHC3 (D3M) compared to fully functional DHHC3 (D3R) ([2]; zDHHC3-ablated MDA-MB-231 reconstituted, lane 10 vs lane 9): markedly enhanced |
| O=C(O)CCCCC1CCSS1 (stereo not drawn) [α-LA, α-lipoic acid] |  | substantially reversed | substantially reversed | substantially prevented | markedly diminished | effect on oxidative stress/ROS elevated by ZDHHC3 ablation [4]: substantially prevented |
